# Measurements published in patent EP0315782A2, “Method for the production of proteins” (priority 1987, dated 1989).
# Key:
# Format in all cases: cell-based, chinesische Hamster
# [1] = test system: CHO-Zellen; assay: t-PA production in transformed CHO cells, medium with 7.5% FKS, supernatant and cell extract, ELISA; conditions: for activation at 1000 µM: CHO
# Excerpt: (§1) Der Vektor für die t-PA-Produktion wurde in einem Subklon, CHO-K1-DUX B11, integriert (Urlaub et al., Proceedings of the National Academy of Science, USA, 77: 4216-4220, 1980). Diese Zell-Linie, eine Dihydrofolat Reduktase negative Mutante (DHFR-), ist für eine DHFR-abhängige Selektion der transfizierten Zellklone geeignet. Der Vektor für die humane c-DNA kann ein bekannter Plasmid-Vektor pBR-322 oder deren Abkömmling von Escherichia coli sein. Die Promotorregion für das in Frage kommende Gen und für das DHFR-Gen stammt aus SV 40 und die Terminationsregion für beide Gene von einem Hepatitis B-Oberflächenantigen. In den Beispielen wurden CHO-K1-DUX B11-Zellen, die durch die Plasmide pETPER oder pEPEFR transformiert sind, verwendet (siehe EP-A 0117059).
# (§2) Die Zellkulturen werden bei 37°C in einem Hereaus-Brutschrank inkubiert und mit einem Kohlendioxid-Luftgemisch von 7,5% CO₂ in einer relativen Luftfeuchtigkeit von 100% belüftet. Je nach Verfahrensansatz werden unterschiedliche Kulturgefäße benutzt: Spinnergefäße für 100-1000 ml Medium, Roux-Schalen (Nunc) 175 cm² (70-100 ml Medium), 75 cm² (30-50 ml Medium), 25 cm² (7-10 ml Medium) und Mehrfachkulturschalen von Costar mit 2 cm² für 1 ml Kulturen. Für die Stammhaltung werden die Zellen in einer Dichte von 0,2-0,3 x 10⁶ Zellen/ml eingesetzt und alle 2-3 Tage subkloniert.
# (§3) Die Protein-Produktion stimulierenden Substanzen können zu den verschiedenen Zeitpunkten jeweils in einer 1:100 Verdünnung zugegeben werden, d.h. sie wurden zuerst in Medium gelöst oder, wenn sie schwerlöslich sind, erst in Äthylalkohol gelöst und danach in Medium zugesetzt und dann das diese Substanz enthaltende Medium dem zellenthaltenden Medium im Verhältnis 1:100 v/v zugegeben.
# (§4) In den folgenden Beispielen wurden, um die Stimulierung der t-PA-Synthese hervorzurufen, Zellen einer exponentiell wachsenden Kultur entnommen und in Plastikröhrchen (Falcon) 10 Min. bei 1000 x g in einer Beckmann T 3-6 Zentrifuge abzentrifugiert. Nach Dekantieren des Überstandes wurde das Zellpellet mit frischem Medium resuspendiert.
# (§5) Für die Produktion von t-PA in serumhaltigem Medium wurde als frisches Medium F12/DMEM + 7,5% FKS + Gentamycin verwendet. Die resultierende Suspension kann in 2 cm² 24 Wells-Platten bei einer Zelldichte von 0,2-0,3 x 10⁶ Zellen/ml angesetzt werden.
# (§6) Aliquots von Zellüberständen und Zellextrakten wurden zu verschiedenen Zeitpunkten abgenommen bzw. hergestellt. Die Messung der Proben erfolgte entweder sofort oder nach Aufbewahrung bei -20°C mit folgenden Methoden:
# Mit Hilfe eines ELISA (Enzyme-linked-immuno-sorbent-assay) wurden die t-PA-Proben des Überstandes und des Zellextraktes quantitativ bestimmt. Als Standard diente ein Laborstandard in einer Konzentrationsreihe von 0,038-5 µg/ml. Die Proben wurden 1:10 bis 1:1000 vorverdünnt.
# [2] = test system: CHO-Zellen; assay: t-PA production in transformed CHO cells, medium with 7.5% FKS, supernatant, direct chromogenic assay (DCA); conditions: for activation at 1000 µM / activation at 1 µM: CHO; for activation at 1000 µM: read-out: Steigerung der t-PA-Produktion; for activation at 1 µM: read-out: % Steigerung der t-PA-Synthese
# Excerpt: as §1, §2, §3, §4, §5, §6
# Von dem synthetischen Peptidsubstrat S-2288 (D-H-Ile-Pro-Arg-p-Nitroanilin) der Firma Kabi Diagnostica wird durch das t-PA p-Nitroanilin als Reaktionsprodukt gebildet. Die Aktivität von t-PA ist zur Bildung von p-Nitroanilin proportional, die bei […], 37°C, gemessen wird.
# Die spektrophotometrische Bestimmung der Enzymkinetik wurde mit einem ACP-5010-Analysengerät der Firma Eppendorf automatisch durchgeführt.
# Die Aktivität des Enzyms wurde anhand dieses vorgegebenen Standards berechnet. Eine t-PA-Standardreihe von 1-15 µg/ml wurde mit einem Laborstandard hergestellt, der zu 72% aus 1-kettigem Material besteht.
# Die Substratlösung (100 mM Tris/106 mM NaCl) wurde in einer Konzentration von 50 mM eingesetzt.
# [3] = test system: CHO-Zellen; assay: t-PA production in transformed CHO cells, medium and determination method not stated
# Excerpt: as §1, §2, §3, §4
# Aliquots von Zellüberständen und Zellextrakten wurden zu verschiedenen Zeitpunkten abgenommen bzw. hergestellt. Die Messung der Proben erfolgte entweder sofort oder nach Aufbewahrung bei -20°C mit folgenden Methoden: […]
# [4] = test system: CHO-Zellen; assay: Cell growth / cell division of transformed CHO cells
# Experimental: as §2, §5
# (§7) Für die Produktion von t-PA in serumfreiem Medium wurden die Zellen zuvor 3-4 Tage in einem Medium von 1-2% FKS adaptiert, wieder abzentrifugiert und das Zellpellet in serumfreiem Medium resuspendiert und anschließend in 2 cm² 24 Wells-Platten in einer Zelldichte von 0,4-0,5 x 10⁶ Zellen/ml überführt.
# [5] = test system: CHO-Zellen; assay: t-PA production in transformed CHO cells, serum-free medium (DCA or determination method not given)
# Excerpt: Diese Zell-Linie, eine Dihydrofolat Reduktase negative Mutante (DHFR-), ist für eine DHFR-abhängige Selektion der transfizierten Zellklone geeignet. […] Die Promotorregion für das in Frage kommende Gen und für das DHFR-Gen stammt aus SV 40 und die Terminationsregion für beide Gene von einem Hepatitis B-Oberflächenantigen.
# Im folgenden Beispiel wird ein nachseziertes DMEM/Ham's F 12 Medium (1:1) (Gibco) als serumfreies Medium verwendet. Als Zusatz wird fötales Kälberserum (FKS) in einer Konzentration von 7,5% oder 1-2% verwendet.
# as §2, §3, §4, §7, §6
# Die Aktivität des Enzyms wurde anhand dieses vorgegebenen Standards berechnet.
# [6] = test system: CHO-Zellen; assay: t-PA production in transformed CHO cells, serum-free medium, ELISA; conditions: for activation at 1 µM: CHO, Elisa, 1 ml supernatant vs control (0%), read-out: % Steigerung der t-PA-Synthese
# Excerpt: as §1
# Als serumfreies Medium stehen verschiedene bekannte Produkte zur Verfügung (siehe z.B. BMFT-Statusseminar 12, 13. November 1985, Bundesministerium für Forschung und Technologie, 5300 Bonn 2, Seite 111-120). Im folgenden Beispiel wird ein nachseziertes DMEM/Ham's F 12 Medium (1:1) (Gibco) als serumfreies Medium verwendet. Als Zusatz wird fötales Kälberserum (FKS) in einer Konzentration von 7,5% oder 1-2% verwendet.
# as §2, §3
# as §4, with “resuspendiert. […]” for “resuspendiert.”
# Mit Hilfe eines ELISA (Enzyme-linked-immuno-sorbent-assay) wurden die t-PA-Proben des Überstandes und des Zellextraktes quantitativ bestimmt. […]
smiles,measurement,setting,value
O=C(O)CS [Thioglykolsäure],maximale intrazelluläre t-PA-Konzentration,"[1]; 1 mM, after 24 h (Abb. 17C)","1,1 ± 0,1 µg/l x 10⁶ Zellen"
same,activation at 1000 µM,"[1]; 96 h, 1 mM, Elisa, per 1 x 10⁶ cells, day 4 (Abb. 17B), read-out: Steigerungsrate",~35%
same,activation at 1000 µM,"[2]; 24 h, Table 9, 1 mM, Zeit 24 h, Applikationstag 0, 7,5% FKS, 1 ml supernatant vs control (0%)",27.6%
same,activation at 1000 µM,"[2]; 24 h, Table 9, 1 mM, Zeit 24 h, Applikationstag 1, 7,5% FKS, 1 ml supernatant vs control (0%)",34.7%
same,activation at 1000 µM,"[2]; 24 h, Table 9, 1 mM, Zeit 24 h, Applikationstag 2, 7,5% FKS, 1 ml supernatant vs control (0%)",34.5%
same,activation at 1000 µM,"[2]; 48 h, Table 9, 1 mM, Zeit 48 h, Applikationstag 0, 7,5% FKS, 1 ml supernatant vs control (0%)",16.9%
same,activation at 1000 µM,"[2]; 48 h, Table 9, 1 mM, Zeit 48 h, Applikationstag 1, 7,5% FKS, 1 ml supernatant vs control (0%)",17.1%
same,activation at 1000 µM,"[2]; 48 h, Table 9, 1 mM, Zeit 48 h, Applikationstag 2, 7,5% FKS, 1 ml supernatant vs control (0%)",16.3%
same,activation at 1000 µM,"[2]; 72 h, Table 9, 1 mM, Zeit 72 h, Applikationstag 0, 7,5% FKS, 1 ml supernatant vs control (0%)",14.7%
same,activation at 1000 µM,"[2]; 72 h, Table 9, 1 mM, Zeit 72 h, Applikationstag 1, 7,5% FKS, 1 ml supernatant vs control (0%)",10.2%
same,activation at 1000 µM,"[2]; 72 h, Table 9, 1 mM, Zeit 72 h, Applikationstag 2, 7,5% FKS, 1 ml supernatant vs control (0%)",9.4%
same,activation at 1000 µM,"[2]; 96 h, Table 9, 1 mM, Zeit 96 h, Applikationstag 0, 7,5% FKS, 1 ml supernatant vs control (0%)",3.4%
same,activation at 1000 µM,"[2]; 96 h, Table 9, 1 mM, Zeit 96 h, Applikationstag 1, 7,5% FKS, 1 ml supernatant vs control (0%)",2.7%
same,activation at 1000 µM,"[2]; 96 h, Table 9, 1 mM, Zeit 96 h, Applikationstag 2, 7,5% FKS, 1 ml supernatant vs control (0%)",0.5%
same,optimaler Dosisbereich,"[2]; Table 8, 7,5% FKS, bracketed value = concentration of the single sample",1 mM
same,% Steigerung der t-Pa-Synthese Durchschnitt,"[2]; Table 8, mean ± SE, n = 6-19, runs of 3 days, added day 0 to 2, 7,5% FKS, 1 ml supernatant vs control (0%)","31,2 ± 3,2%"
same,% Steigerung der t-Pa-Synthese Maximum,"[2]; Table 8, single sample, 7,5% FKS, 1 ml supernatant vs control (0%)","66,4%"
same,t-PA-Produktion erhöht (Dauer),"[2]; duration of raised production after treatment, independent of application day",72 h
same,Maximalwert des Steigerungseffektes erreicht nach,[2]; time to maximal effect (Abb. 15),24 h
same,extrazelluläre t-PA-Konzentration gegenüber der Kontrolle gesteigert,"[3]; day 5, medium not clearly stated","10,7%"
same,Hemmung der Zellteilung,[4]; serum-free medium,10-20%
CCCC(=O)O [Na-Butyrat],activation at 1000 µM,"[1]; 24 h, read-out: Stimulierung der t-PA-Synthese extrazellulär",68.5%
same,activation at 1000 µM,"[1]; 24 h, read-out: Stimulierung der t-PA-Synthese intrazellulär",90.9%
same,activation at 1000 µM,"[1]; 48 h, read-out: Stimulierung der t-PA-Synthese extrazellulär",119%
same,activation at 1000 µM,"[1]; 48 h, read-out: Stimulierung der t-PA-Synthese intrazellulär",99.7%
same,activation at 1000 µM,"[1]; 72 h, read-out: Stimulierung der t-PA-Synthese extrazellulär",223%
same,activation at 1000 µM,"[1]; 72 h, read-out: Stimulierung der t-PA-Synthese intrazellulär",93.9%
same,activation at 1000 µM,"[1]; 96 h, read-out: Stimulierung der t-PA-Synthese extrazellulär",281%
same,activation at 1000 µM,"[1]; 96 h, read-out: Stimulierung der t-PA-Synthese intrazellulär",210%
same,t-PA-Konzentration im Überstand,"[1]; Elisa, starting value of the rise during the first 4 days","7,5 ± 1,1 µg t-PA/ 1 x 10⁶ Zellen"
same,t-PA-Konzentration im Überstand,"[1]; Elisa, value reached in the rise during the first 4 days","28,9 ± 5,3 µg t-PA/ 1 x 10⁶ Zellen"
same,Zunahme des intrazellulären t-PA-Gehaltes,"[1]; after 24 h incubation, vs control (Abb. 8)","43,8 ± 9,8%"
same,intrazelluläre t-PA-Gehalt,[1]; value from which the content falls (until day 5) (Abb. 9C),"1,5 ± 0,2 µg t-PA/1 x 10⁶ Zellen"
same,Steigerung der t-PA-Synthese gegenüber der Kontrolle,"[5]; serum-free medium, 1 day after application","44,1 ± 7,1%"
same,maximale Steigerung,"[5]; serum-free medium, 3 days after application","143,3 ± 12,8%"
same,Steigerungseffekt,"[5]; serum-free medium, 6 days after addition","49,9 ± 7,0%"
same,weitere Steigerung der t-PA-Synthese,"[6]; in 1 µM Aphidicolin-treated cultures, after 96 h",14%
same,activation at 1000 µM,"[2]; 48 h, Table 6, 1 mM at each medium change (Applikation Tag 0, 2, 4, 7), Mediumwechsel Tag 2, 1 ml supernatant vs control (0%)",33%
same,activation at 1000 µM,"[2]; 96 h, Table 6, 1 mM at each medium change (Applikation Tag 0, 2, 4, 7), Mediumwechsel Tag 4, 1 ml supernatant vs control (0%)",107%
same,activation at 1000 µM,"[2]; 168 h, Table 6, 1 mM at each medium change (Applikation Tag 0, 2, 4, 7), Mediumwechsel Tag 7, 1 ml supernatant vs control (0%)",96.6%
same,activation at 1000 µM,"[2]; 216 h, Table 6, 1 mM at each medium change (Applikation Tag 0, 2, 4, 7), Mediumwechsel Tag 9, 1 ml supernatant vs control (0%)",62%
same,maximaler t-PA-Gehalt,"[2]; DCA, supernatant (Abb. 9B)","47,4 ± 7,4 µg t-PA/1 x 10⁶ Zellen"
same,prozentuale Steigerung im Überstand,"[2]; after 24 h, average of DCA and Elisa, vs control","19,2%"
same,maximale Steigerung der t-PA-Produktion,"[2]; day 3, medium with 7,5% FKS (Abb. 7)","37,2 ± 5,1%"
C[C@@]1(CO)[C@H](O)CC[C@@]2(C)[C@H]1CC[C@H]1C[C@@H]3C[C@@]12CC[C@]3(O)CO [Aphidicolin],Maximum des Effekts nach Mediumwechsel,[5]; serum-free medium (Abb. 18),48 h
same,activation at 1 µM,"[6]; Table 13, 1 µM, 144 h after medium change",51.3%
same,activation at 1 µM,"[6]; Tables 13/14, 1 µM, 96 h after medium change",36.7%
same,activation at 1 µM,"[6]; Tables 13/14, 1 µM, 120 h after medium change",42%
same,activation at 1 µM,[2]; 24 h,40.2%
same,activation at 1 µM,[2]; 48 h,59.9%
same,activation at 1 µM,[2]; 72 h,32.8%
same,activation at 1 µM,[2]; 96 h,14.7%
same,t-PA-Ausbeute gesteigert,"[3]; after 24 h, continued incubation with the substance","44,9 ± 13,9%"
same,intrazelluläre t-PA-Konzentration erhöht,[3]; during the 24 h incubation with the substance,ca. 30%
same,inhibition at 1 µM,"[4]; CHO, 1 µM, after 24 h treatment, read-out: Hemmung des Zellwachstums",5 to 10%
